Our source for the melting point values is a melting point compilation (Tetko et al.; mined from patent text by program, amines drawn as free bases though some values may be those of a salt).

Structures are written as SMILES.

For the compound `Cc1cc(C)c(Nc2nc(C)ncc2S(=O)(=O)c2cccc(OCc3ccccc3)c2)c(C)c1`, the melting point fell in the range of 112 to 115 °C.

Consider `Cc1nc(C)c(Cl)c(CNCc2ccc(Oc3ccc4ncc([N+](=O)[O-])n4n3)cn2)n1`, for which the melting point was in the range of 183 to 184 °C.

In turn, `O=C1C(CCO)Oc2ccc(-c3ccccc3)cc2N1Cc1cccc(Cl)c1` (stereo not drawn) registered a melting point of 119 to 121 °C.

In turn, `Cc1nc2c(N)nc3ccccc3c2n1CCCNC(=O)C1CCCC1` gave a melting point of 208 to 209 °C.

Consider `CSC(Nc1ccc(NC(=O)OC(C)(C)C)cc1)=C(C#N)C#N`, for which the melting point came out at 190 °C.

In turn, `O=S(=O)(c1ccc(F)cc1)N1CCCC1c1ccc(C(F)(F)F)cc1` (racemic) showed a melting point of 114 °C.

`COC(=O)c1cccc(S(=O)(=O)N(C)C)c1CS(N)(=O)=O` had a melting point of 133 to 142 °C.

On to `Cn1cnc2nc(-c3cc(C(C)(C)C)c(O)c(C(C)(C)C)c3)nn2c1=S`, for which the melting point was over 300 °C.

Take `CCCCCCCCCCCCCCn1ccc(C(=O)O)c1`: the melting point was 66 to 67 °C.

Turning to `c1ccc(-c2nc(COc3cccc(CCCn4ccnc4)c3)cs2)cc1`, the melting point fell in the range of 63 to 64 °C.

The compound `CC1CC(=O)NN=C1c1ccc2[nH]c(CCCN3C(=O)c4ccccc4C3=O)nc2c1` (stereo not drawn) registered a melting point of 260 to 261 °C.

Turning to `CCc1nc2ccccc2c(C(=O)OCC(=O)OC(C)(C)C)c1Oc1ccc(-c2ccccc2C#N)cc1`, the melting point lay in the range of 83 to 85 °C.

`Cc1[nH]c(=O)n(C2CCCCC2)c1-c1ccc(OCc2ccccc2)cc1` registered a melting point of 262 °C.

On to `COC1=CCC(N)(O)C=C1` (stereo not drawn), for which the melting point was 138 to 140 °C.

Compound `CCCc1c(C(=O)NCc2ccc3cc(OCC(=O)OC)ccc3c2)cnn1-c1ccccc1` showed a melting point of 145 to 146 °C.

Regarding `CCCCCCCCCCCCCCOc1ccc(CC(=O)NCc2ccccn2)cc1`, the melting point lay in the range of 86 to 87 °C.

For `CCN(CC)C(=O)Nc1ccc(S(=O)(=O)N2C(=O)C(NCCCC(N)=O)(c3ccccc3Cl)c3cc(Cl)ccc32)cc1` (stereo not drawn), the melting point worked out at 192 °C.

The compound `O=C(CN1CCCC1)Nc1ccc(-c2cc(-c3c[nH]nc3-c3ccccn3)ccn2)cc1` yielded a melting point of 188 °C.

With `C[Si](C)(O[Si](C)(C)c1cccnc1F)c1cccnc1F`, the melting point was in the range of 41 to 42 °C.

`O=C(O)Cn1c(=O)c(=O)[nH]c2cc([N+](=O)[O-])c(-n3ccc(CN4CCN(C(c5ccccc5)c5ccccc5)CC4)c3)cc21`: the melting point was over 245 °C.

`C=C(F)C(=O)Oc1c(Cl)cc(C#N)cc1Cl` displayed a melting point of 95 to 99 °C.

`O=S1(=O)NC(C23CC4CC(CC(C4)C2)C3)Nc2c(Br)cc(Br)cc21` (stereo not drawn): the melting point was in the range of 270 to 273 °C.

`CCOC(=O)CCc1ccc(N2CCN(c3ccc(C(=N)NC(=O)OCC)cc3)C2=O)cc1` displayed a melting point of over 335 °C.

As for `CN(C)CCc1cn(S(=O)(=O)c2ccccc2)c2ccc(O)cc12`, the melting point lay within 185 to 188 °C.

Regarding `Cc1c(Sc2ccc(Cl)cc2)nn(-c2ccc3c(c2)OCO3)c(=O)c1C#N`, the melting point lay in the range of 166 to 168 °C.

With `CNC(=O)CCc1cn(Cc2ccc(C(=O)NS(=O)(=O)c3ccccc3C)cc2OC)c2cc(C(=O)NCC3CCCC3)ccc12`, the melting point fell in the range of 211 to 212 °C.

Turning to `CCSc1c(CO)nc(C)n1Cc1ccc(-c2ccccc2C(=O)O)cc1`, the melting point stood at 205 °C.

`O=C(O)c1ccc(-c2ccc(NS(=O)(=O)C(F)(F)F)cc2)[nH]c1=O` registered a melting point of over 260 °C.

Take `C#CCOc1cc(-c2ncnc(C(F)(F)F)c2Cl)c(F)cc1Cl`: the melting point was in the range of 112 to 113 °C.

The compound `CCCCc1nc(O)c(CC(=O)OCC)c(O)n1` displayed a melting point of 260 °C.

With `CC(=O)n1ccc2c(C=O)ccc(OCc3ccccc3)c21`, the melting point was in the range of 77 to 78 °C.

`Fc1ccc(Nc2nc(OCC3CCCCC3)c3[nH]cnc3n2)cc1Cl` showed a melting point of 225 to 226 °C.

Take `CNc1c(C/C=C(\C)CCC(=O)O)c(OC)c(C)c2c1C(=O)OC2`: the melting point fell in the range of 121 to 124 °C.

Turning to `O=C1NC(=O)C(=Cc2cc(O)c(O)c([N+](=O)[O-])c2)C(=O)N1`, the melting point was in the range of 269 to 272 °C.

In turn, `O=C(O)CCOc1ccc(CNC(=O)C2Cc3ccccc3N2S(=O)(=O)c2ccc(-c3cccc(C(F)(F)F)c3)cc2)cc1` (stereo not drawn) gave a melting point of 72 °C.

`O=C1CCCC(=O)N1c1ccc([N+](=O)[O-])cc1` yielded a melting point of 207 to 209 °C.

With `COc1ccc(-c2nc(CCCCCc3nnn[nH]3)oc2-c2ccc(OC)cc2)cc1`, the melting point turned out to be 150 °C.

For `CC1=C(CC2=NCCN2C)CCc2ccccc21`, the melting point lay in the range of 162 to 164 °C.

The compound `C1=C(c2cccc3[nH]ccc23)CN(CCc2ccccc2)CC1` yielded a melting point of 205 °C.

Take `O=CC(=Cc1ccccc1Br)C(C=O)=Cc1ccccc1Br`: the melting point is 194 to 195 °C.

As to `CCCCCCCN1C(=O)C2CC(c3ccc([N+](=O)[O-])cc3)(C2)C1=O`, the melting point is 91 to 92 °C.

For the compound `CCCn1c(=O)c2[nH]c(N3CCOCC3)nc2n(CCC)c1=O`, the melting point fell in the range of 251 to 252 °C.

`Oc1ccc2cc(Br)ccc2c1Cl`: the melting point lay in the range of 100 to 101 °C.

For the compound `Cc1c(C(=O)O)oc2ccc(OCCNC[C@@H](O)c3csc(C(F)(F)F)n3)cc12`, the melting point was in the range of 128 to 131 °C.

`COC(=O)CC[C@H](NC(=O)c1ccc(CCC2CNc3nc(NC(=O)C(C)(C)C)nc(O)c3C2)s1)C(=O)OC` (stereo partly drawn) yielded a melting point of 152 to 160 °C.

`CCc1c(Oc2cc(C)cc(C)c2)n(C/C=C/CO)c(=O)[nH]c1=O`: the melting point is 125 to 126 °C.

Turning to `CCOC(=O)C(CC(=O)c1ccc(Oc2ccc(Cl)cc2)cc1)SC(C)=O` (stereo not drawn), the melting point lay within 75.5 to 77 °C.

`O=C1c2ccccc2C(=O)N1N1C2CCCCC21` (stereo not drawn): the melting point fell in the range of 75 to 77 °C.

With `Cc1cccc(CN2C(=O)C3(COc4cc5c(cc43)OCCO5)c3ccccc32)n1` (stereo not drawn), the melting point fell in the range of 183 to 185 °C.

Compound `O=C(O)C(CCN1C(=O)c2ccccc2C1=O)CS(=O)(=O)c1ccc(-c2ccccc2)cc1` (stereo not drawn) showed a melting point of 180 °C.

For the compound `CC(C)(C)OC(=O)CN1CCN(c2ccnc(C#N)c2)C1=O`, the melting point is 139 to 140 °C.

Regarding `Cn1c(C(F)(F)F)cc(=O)n(-c2ccc(Cl)c3c2OC(C)(C)C3)c1=O`, the melting point fell in the range of 152 to 153 °C.

`Cc1ccc(S(=O)(=O)NCCCCCCCCCCCn2c3c(c4ccccc4c2=O)C(=O)c2ccccc2-3)cc1` had a melting point of 170 to 172 °C.

With `Cc1cccc2ncc(C(=O)NCC(C)(C)C)c(=O)n12`, the melting point lay in the range of 191 to 194 °C.

`O=c1c(-c2ccccc2O)coc2cc(O)c(Cl)cc12` had a melting point of over 250 °C.

Compound `CS(=O)(=O)Nc1ccc(N2CCN(c3cc(N)ccn3)CC2)cc1` yielded a melting point of 225 to 227 °C.

Compound `COc1cccc([C@H]2O[C@H](CC(=O)Nc3cc(Cl)cc4cc(C(=O)O)oc34)C(=O)N(CC(C)(C)CO)c3ccc(Cl)cc32)c1OC` yielded a melting point of 179 to 180 °C.

Consider `Cc1ccc2[nH]c(=O)cc(CCN3CCN(c4cccc5ccccc45)CC3)c2c1`, for which the melting point fell in the range of 241 to 242 °C.

For the compound `c1ccc2[nH]c(CN3CCN(c4nccs4)CC3)nc2c1`, the melting point is 203 to 205 °C.

`CCOC(=O)C1=C(N)NC(N)=C(C(=O)OCC)C1c1ccccc1N=[N+]=[N-]`: the melting point amounted to 250 °C.

Consider `CC(C)c1cc(C(=O)C=CC(=O)N2CCN(C)CC2)ccc1OCC(=O)Nc1nc2ccccc2s1`, for which the melting point is 114 to 115 °C.

Regarding `COC(=O)C1(NC(=O)Cc2c(C)ccc(-c3ccc(Cl)cc3)c2C)CCC(F)(F)CC1`, the melting point fell in the range of 179 to 183 °C.

`Cc1nc2scc(C)n2c(=O)c1CCN1CCC(Nc2nc3ccccc3n2Cc2ccc(F)cc2)CC1` registered a melting point of 141 °C.

As for `O=S(=O)(NCCO)c1cccc(-c2cccc(-c3nc(-c4ccc(C(F)(F)F)cc4)cc(C(F)(F)F)n3)c2)c1`, the melting point was determined as 153 °C.

The compound `CC1=C(C(=O)OC(C)C)C(c2cccc([N+](=O)[O-])c2)C(S(=O)(=O)N(C)C)=C(C)N1` (stereo not drawn) showed a melting point of 136 to 138 °C.

`COc1ccc2c(c1)C(=O)NCCS2` registered a melting point of 164 to 166 °C.

Consider `Clc1ccccc1C(Oc1ccccc1)C1CNCCO1` (stereo not drawn), for which the melting point lay in the range of 80 to 102 °C.

The compound `C=C(C(=O)c1cc2c(c(C)c1C)OC(C(=O)O)C2)C(C)C` (stereo not drawn) showed a melting point of 97 °C.

Compound `CC(C)Cn1c(=O)n(C)c(=O)c2cc(C(=O)c3cccc4ccccc34)sc21` yielded a melting point of 150 °C.

For the compound `O=C(Nc1ccccc1Cl)Oc1ccc2c(c1)CCCN2`, the melting point amounted to 201 °C.

On to `Cc1ccc(NS(=O)(=O)c2ccc(-c3cnc4[nH]c(CCC5CCCCC(=S)N5)nc4c3)cc2)c(F)c1` (stereo not drawn), for which the melting point is 271 °C.

Regarding `CCC(=NOc1ccc(F)cc1)c1cc(Cl)ccc1NS(=O)(=O)C(F)(F)F`, the melting point was 47 to 48 °C.

Consider `CNC1CN(c2cc3c(cc2F)c(=O)c(C(=O)O)cn3C2CC2)C1`, for which the melting point lay within 245 to 249 °C.

`CCc1cc2c(=O)c3cccc(C(=O)OC)c3n(Cc3ccc(-c4ccccc4-c4nnn[nH]4)cc3)c2s1` displayed a melting point of 228 to 231 °C.

In turn, `CC(C)(C)OC(=O)C(CN(Cc1ccccc1)Cc1ccccc1)CC1(C(=O)NC(Cc2ccc(OC(C)(C)C)cc2)C(=O)OC(C)(C)C)CCCC1` (stereo not drawn) came in with a melting point of 82 to 87 °C.

For the compound `CCCCCCNC(=O)OC1CCN(C(=O)Oc2ccc(Oc3ccccc3)cc2)CC1`, the melting point lay in the range of 77 to 82 °C.

In turn, `FC(F)(F)c1ccc(-c2cc(Oc3ccc4cc[nH]c4c3)ncn2)cc1` had a melting point of 206 to 209 °C.

For the compound `CC(=O)Nc1ccc(C(C)=C(Cl)Cl)cc1`, the melting point fell in the range of 164 to 166 °C.

On to `CC(C)N(CC(=O)c1ccc(F)cc1)c1ccccc1`, for which the melting point was in the range of 78 to 81 °C.

`OC1(c2ccc3[nH]cc(CCN4CCCC4)c3c2)CCCCC1` returned a melting point of 66 to 78 °C.

For `C=CCN(CC=C)c1nc(NC(C)=O)n2oc(=O)nc2n1`, the melting point was 164 to 165 °C.

Compound `N#CC(Cc1cccc(F)c1)n1nnc2cc3c(cc2c1=O)OC1CCCN1C3=O` (stereo not drawn) gave a melting point of 182 to 184 °C.

`CC1CC(=O)Nc2ncc3c(c21)CCCN3` (stereo not drawn) registered a melting point of 309 to 311 °C.
